Experimental data reported in patent publication EP2017288A1, “Protease stabilized, pegylated insulin analogues” (NOVO NORDISK A/S, priority 2007, dated 2009).

Assay: Pulmonary delivery to rats (intratracheal drop instillation)
Format: in vivo, male Wistar rats
Settings: statement in words; Fig. 1 is a rat intratracheal drop instillation of the insulin of example 1
Protocol: The test substance will be dosed pulmonary by the drop instillation method. In brief, male Wistar rats (app.250 g) are anaesthesized in app. […] fentanyl/dehydrodenzperidol/-dormicum given as a 6.6 ml/kg sc primingdose and followed by 3 maintainance doses of 3.3 ml/kg sc with an interval of 30 min. Ten minutes after the induction of anaesthesia, basal samples are obtained from the tail vein (t = -20 min) followed by a basal sample immediately prior to the dosing of test substance (t=0). At t=0, the test substance is dosed intra tracheally into one lung. A special cannula with rounded ending is mounted on a syringe containing the 200 ul air and test substance (1 ml/kg). Via the orifice, the cannula is introduced into the trachea and is forwarded into one of the main bronchi -just passing the bifurcature. During the insertion, the neck is palpated from the exterior to assure intratracheal positioning. The content of the syringe is injected followed by 2 sec pause. Thereafter, the cannula is slowly drawn back. The rats are kept anaesthesized during the test (blood samples for up to 4 or 8 hrs) and are euthanized after the experiment.

A14E, B25H, B29K(N^ε-3-mdPEG24-Propionyl), desB30 human insulin [Example 1]
pulmonary efficacy: substantial protracted pulmonary efficacy
